Data on 3 compounds can be found in PMC11859825, “Discovery of Sphingosine Kinase Inhibition by Modified Quinoline-5,8-Diones” (Pharmaceuticals, 2025).

One experiment addresses SphK1. The following applies: cited from earlier work.
A further experiment concerns SphK2. The following applies: cited from earlier work.
The subject of experiment [1] is A498 kidney adenocarcinoma cells. Also noted: method as in PMID 22970244. The note with it: read-out: EC50, reduced proliferation; cited from earlier work.
Experiment [2] deals with head and neck squamous cell carcinoma (SCC) cells. Also noted: method as in PMID 29109864. The note with it: cited from earlier work.
Another experiment has as its target T1, recombinant human SphK2 (Homo sapiens, UniProt Q9NRA0).
T1 sequence (Q9NRA0 1-654): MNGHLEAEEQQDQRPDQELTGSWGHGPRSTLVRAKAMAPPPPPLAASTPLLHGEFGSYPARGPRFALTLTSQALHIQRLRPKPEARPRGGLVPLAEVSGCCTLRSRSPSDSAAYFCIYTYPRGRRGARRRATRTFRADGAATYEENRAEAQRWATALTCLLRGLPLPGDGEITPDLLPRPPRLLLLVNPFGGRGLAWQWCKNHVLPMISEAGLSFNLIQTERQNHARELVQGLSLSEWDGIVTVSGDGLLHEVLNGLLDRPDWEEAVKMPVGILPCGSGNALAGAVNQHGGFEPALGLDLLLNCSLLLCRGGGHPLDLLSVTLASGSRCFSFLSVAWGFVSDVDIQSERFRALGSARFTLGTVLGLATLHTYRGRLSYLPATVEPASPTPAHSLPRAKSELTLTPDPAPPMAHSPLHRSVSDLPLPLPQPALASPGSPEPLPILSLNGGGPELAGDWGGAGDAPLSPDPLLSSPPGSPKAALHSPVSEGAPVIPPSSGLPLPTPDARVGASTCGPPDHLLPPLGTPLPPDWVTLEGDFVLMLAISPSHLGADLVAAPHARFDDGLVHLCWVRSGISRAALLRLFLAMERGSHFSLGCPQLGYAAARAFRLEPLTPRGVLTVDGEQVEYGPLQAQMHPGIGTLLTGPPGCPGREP
The experiment can be described thus: Fluorometric NBD-sphingosine sphingosine kinase inhibition assay, SphK2.

The next experiment has as its system 60 cell lines (NCI). Also on record: method as in NCI cancer-screening platform (NSC796101). The note with it: ref NCI cancer-screening platform (NSC796101); read-out: Mean GI50 across 60 cell lines; cited from earlier work.
The target in the next experiment is recombinant human SphK1 (Homo sapiens, UniProt Q9NYA1). As to the kind of experiment: Fluorometric NBD-sphingosine sphingosine kinase inhibition assay, SphK1.
Sequence of recombinant human SphK1 (Q9NYA1 whole entry): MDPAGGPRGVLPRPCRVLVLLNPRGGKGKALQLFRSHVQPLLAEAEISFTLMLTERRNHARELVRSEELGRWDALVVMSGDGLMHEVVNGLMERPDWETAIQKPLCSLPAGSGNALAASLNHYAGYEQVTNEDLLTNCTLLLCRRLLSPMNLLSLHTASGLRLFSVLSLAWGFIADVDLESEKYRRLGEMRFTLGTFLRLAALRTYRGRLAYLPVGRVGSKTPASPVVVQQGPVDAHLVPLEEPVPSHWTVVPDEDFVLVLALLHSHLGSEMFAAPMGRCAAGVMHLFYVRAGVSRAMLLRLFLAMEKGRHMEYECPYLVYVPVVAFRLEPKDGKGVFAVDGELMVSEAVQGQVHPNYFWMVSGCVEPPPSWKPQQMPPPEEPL

Where two headings read alike, the source gives them in different places. Bounds are passed on as bounds.

Method for recombinant human SphK1: (§1) The fluorescence-based assay involved incubating the quinoline-5,8-diones with SphK isoforms individually (recombinant SphK1 and SphK2 in duplicate) [41].
(§2) The relevant enzymes and inhibitors were incubated in total reaction volumes of 100 µL with 10 µM NBD-sphingosine, 500 µM 4-deoxypyridoxine and 1 mM Mg-ATP in assay buffer (100 mM Tris/HCl (pH 7.4), 150 mM NaCl, 2 mM Na3VO4 and 10 mM NaF) for 30 min at 37 °C. A reaction mixture containing no test SphK inhibitor served as the positive control, while a reaction mixture containing no Mg-ATP served as the negative control. Post-incubation, 100 µL of potassium phosphate buffer, pH 8.5, was added to each Eppendorf, followed by 500 µL of 2:1 Chloroform/Methanol. After brief mixing with a vortex, phases were separated by centrifugation at 2000 rpm for 5 min. […] Data are expressed as mean SD from a minimum of 2 independent experiments. […] From this, the IC50 values of several test inhibitors were calculated.
Method for recombinant human SphK2: as §1, §2

As to `CC(=O)N(C1=C(Cl)C(=O)c2ccccc2C1=O)C1CCCCC1` [CB5468139], at SphK1, the inhibition constant Ki was 300 nM. For the same compound, in the experiment on SphK2, the “Concentration up to which SphK2 activity is not affected” value is > 100 µM. In addition, the EC50 in experiment [1] is 10 to 15 µM.

With `Cc1cc(CS(=O)(=O)c2ccccc2)cc(OCc2ccc(CN3CCC[C@@H]3CO)cc2)c1` [PF-543], the “Necrotic SCC cells induced by PF-543” value was 26.3% in experiment [2] (with addition of ROS scavenger N-acetyl-L-cysteine) and 48.6% in experiment [2] (without ROS scavenger). Also, on recombinant human SphK2 (read-out: Spk2 % Inhibition), the inhibition at 0.1 µM stood at 0.7%.

Regarding `O=C(NCc1ccncc1)C12CC3CC(C1)CC(c1ccc(Cl)cc1)(C3)C2` [opaganib, reference compound], the Ki on SphK2 (ref 20-24 (b6), 19, 22) was 9.8 µM. Also, the GI50 with 60 cell lines (NCI) is 11.5 µM. The inhibition at 10 µM at recombinant human SphK1 (read-out: Spk1 % Inhibition, 10uM, Table S2 assay validation) is -8.6%; at recombinant human SphK2 (read-out: SphK2 inhibition, 10 μM compound), 36%; at recombinant human SphK2 (read-out: Spk2 % Inhibition, 10uM, Table S2 assay validation) it was 35.5%. The “Selectivity between SphK1 and SphK2 (in words)” value at recombinant human SphK1 (single-concentration screen, SphK1 versus SphK2) is “high SphK2 selectivity”.

In general, Ki refers to the dissociation constant of the complex between target and ligand, obtained from inhibition or displacement. The term inhibition denotes the drop in the measured response relative to a control, in per cent. Usually GI50 stands for the concentration giving 50% growth inhibition.
